Source: PubChem BioAssay (NCI)
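1) Cells in 96-well plates. 2) Compound, 48 h, 5 concentrations. 3) Linear interpolation between surrounding doses. 4) Unreached endpoint = highest concentration. Definition used: TGI = concentration required for complete inhibition of growth.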

Experiments:
Test in all cases: NCI-60 cell line screen, 48 h
PC-3 prostate = tested on: PC-3 prostate
LOX IMVI melanoma = tested on: LOX IMVI melanoma
UACC-257 melanoma = tested on: UACC-257 melanoma
MDA-MB-435 = tested on: MDA-MB-435
NCI/ADR-RES ovarian = tested on: NCI/ADR-RES ovarian
HOP-92 NSCLC = tested on: HOP-92 NSCLC
OVCAR-4 ovarian = tested on: OVCAR-4 ovarian
MALME-3M melanoma = tested on: MALME-3M melanoma
MDA-N = tested on: MDA-N
T-47D breast = tested on: T-47D breast
IGROV1 ovarian = tested on: IGROV1 ovarian
A498 renal = tested on: A498 renal
HL-60(TB) leukemia = tested on: HL-60(TB) leukemia
HCC-2998 colon = tested on: HCC-2998 colon
SW-620 colon = tested on: SW-620 colon
CCRF-CEM leukemia = tested on: CCRF-CEM leukemia
SF-268 CNS = tested on: SF-268 CNS
OVCAR-3 ovarian = tested on: OVCAR-3 ovarian
HOP-62 NSCLC = tested on: HOP-62 NSCLC
MOLT-4 leukemia = tested on: MOLT-4 leukemia
HS 578T breast = tested on: HS 578T breast
TK-10 renal = tested on: TK-10 renal
NCI-H226 lung = tested on: NCI-H226 lung
SNB-75 CNS = tested on: SNB-75 CNS
RXF 393 renal = tested on: RXF 393 renal
MCF7 breast = tested on: MCF7 breast
786-0 renal = tested on: 786-0 renal
NCI-H23 lung = tested on: NCI-H23 lung
K-562 leukemia = tested on: K-562 leukemia
HCT-116 colon = tested on: HCT-116 colon
HT29 colon = tested on: HT29 colon
SF-295 CNS = tested on: SF-295 CNS
ACHN renal = tested on: ACHN renal
DU-145 prostate = tested on: DU-145 prostate
SN12C renal = tested on: SN12C renal
U251 CNS = tested on: U251 CNS
M14 melanoma = tested on: M14 melanoma
NCI-H522 lung = tested on: NCI-H522 lung
SF-539 CNS = tested on: SF-539 CNS
SK-MEL-28 melanoma = tested on: SK-MEL-28 melanoma
SK-MEL-5 melanoma = tested on: SK-MEL-5 melanoma
A549 NSCLC = tested on: A549 NSCLC
RPMI-8226 leukemia = tested on: RPMI-8226 leukemia
HCT-15 colon = tested on: HCT-15 colon
SNB-19 CNS = tested on: SNB-19 CNS
NCI-H460 lung = tested on: NCI-H460 lung
EKVX NSCLC = tested on: EKVX NSCLC
OVCAR-8 ovarian = tested on: OVCAR-8 ovarian
UACC-62 melanoma = tested on: UACC-62 melanoma
SR leukemia = tested on: SR leukemia
OVCAR-5 ovarian = tested on: OVCAR-5 ovarian
MDA-MB-231 breast = tested on: MDA-MB-231 breast
KM12 colon = tested on: KM12 colon
CAKI-1 renal = tested on: CAKI-1 renal
SK-OV-3 ovarian = tested on: SK-OV-3 ovarian
UO-31 renal = tested on: UO-31 renal
COLO 205 colon = tested on: COLO 205 colon

For `O=C([O-])C1([n+]2c(-c3ccccc3)cc(-c3ccccc3)cc2-c2ccccc2)CC1`, the TGI (PC-3 prostate) was over 100 µM, the TGI (LOX IMVI melanoma) was over 100 µM and the TGI (UACC-257 melanoma) was over 100 µM. For the same compound, the TGI (MDA-MB-435) was 50.7 µM, the TGI (NCI/ADR-RES ovarian) was over 100 µM and the TGI (HOP-92 NSCLC) was over 100 µM. It also gave a TGI (OVCAR-4 ovarian) of over 100 µM, a TGI (MALME-3M melanoma) of over 100 µM and a TGI (MDA-N) of over 100 µM. For the same compound, the TGI (T-47D breast) was 45.2 µM, the TGI (IGROV1 ovarian) was over 100 µM and the TGI (A498 renal) was over 100 µM. For the same compound, the TGI (HL-60(TB) leukemia) was 68.4 µM, the TGI (HCC-2998 colon) was over 100 µM and the TGI (SW-620 colon) was over 100 µM. It also gave a TGI (CCRF-CEM leukemia) of over 100 µM, a TGI (SF-268 CNS) of over 100 µM and a TGI (OVCAR-3 ovarian) of over 100 µM. It also gave a TGI (HOP-62 NSCLC) of over 100 µM, a TGI (MOLT-4 leukemia) of over 100 µM and a TGI (HS 578T breast) of over 100 µM. The TGI (TK-10 renal) was over 100 µM, the TGI (NCI-H226 lung) was over 100 µM and the TGI (SNB-75 CNS) was over 100 µM. The TGI (RXF 393 renal) was over 100 µM, the TGI (MCF7 breast) was over 100 µM and the TGI (786-0 renal) was over 100 µM. It also gave a TGI (NCI-H23 lung) of over 100 µM, a TGI (K-562 leukemia) of over 100 µM and a TGI (HCT-116 colon) of over 100 µM. It also gave a TGI (HT29 colon) of over 100 µM, a TGI (SF-295 CNS) of over 100 µM and a TGI (ACHN renal) of over 100 µM. The TGI (DU-145 prostate) was over 100 µM, the TGI (SN12C renal) was over 100 µM and the TGI (U251 CNS) was over 100 µM. It also gave a TGI (M14 melanoma) of over 100 µM, a TGI (NCI-H522 lung) of over 100 µM and a TGI (SF-539 CNS) of over 100 µM. It also gave a TGI (SK-MEL-28 melanoma) of over 100 µM, a TGI (SK-MEL-5 melanoma) of over 100 µM and a TGI (A549 NSCLC) of over 100 µM. For the same compound, the TGI (RPMI-8226 leukemia) was over 100 µM, the TGI (HCT-15 colon) was over 100 µM and the TGI (SNB-19 CNS) was over 100 µM. It also gave a TGI (NCI-H460 lung) of over 100 µM, a TGI (EKVX NSCLC) of over 100 µM and a TGI (OVCAR-8 ovarian) of over 100 µM. The TGI (UACC-62 melanoma) was 67.7 µM, the TGI (SR leukemia) was over 100 µM and the TGI (OVCAR-5 ovarian) was over 100 µM.
In the case of `O=c1[nH]nc(Cc2ccccc2)n1C1CC1`, the TGI (PC-3 prostate) is reported as over 100 µM, the TGI (LOX IMVI melanoma) is reported as over 100 µM and the TGI (UACC-257 melanoma) is reported as over 100 µM. It also gave a TGI (MDA-MB-435) of over 100 µM, a TGI (NCI/ADR-RES ovarian) of over 100 µM and a TGI (HOP-92 NSCLC) of over 100 µM. For the same compound, the TGI (OVCAR-4 ovarian) was over 100 µM, the TGI (MALME-3M melanoma) was over 100 µM and the TGI (MDA-N) was over 100 µM. For the same compound, the TGI (T-47D breast) was over 100 µM, the TGI (IGROV1 ovarian) was over 100 µM and the TGI (A498 renal) was over 100 µM. It also gave a TGI (MDA-MB-231 breast) of over 100 µM, a TGI (HL-60(TB) leukemia) of over 100 µM and a TGI (HCC-2998 colon) of over 100 µM. It also gave a TGI (SW-620 colon) of over 100 µM, a TGI (KM12 colon) of over 100 µM and a TGI (CCRF-CEM leukemia) of over 100 µM. The TGI (SF-268 CNS) was over 100 µM, the TGI (OVCAR-3 ovarian) was over 100 µM and the TGI (CAKI-1 renal) was over 100 µM. The TGI (HOP-62 NSCLC) was over 100 µM, the TGI (MOLT-4 leukemia) was over 100 µM and the TGI (HS 578T breast) was over 100 µM. It also gave a TGI (TK-10 renal) of over 100 µM, a TGI (NCI-H226 lung) of over 100 µM and a TGI (SNB-75 CNS) of over 100 µM. The TGI (SK-OV-3 ovarian) was over 100 µM, the TGI (RXF 393 renal) was over 100 µM and the TGI (UO-31 renal) was over 100 µM. It also gave a TGI (MCF7 breast) of over 100 µM, a TGI (786-0 renal) of over 100 µM and a TGI (NCI-H23 lung) of over 100 µM. For the same compound, the TGI (K-562 leukemia) was over 100 µM, the TGI (HCT-116 colon) was over 100 µM and the TGI (HT29 colon) was over 100 µM. It also gave a TGI (SF-295 CNS) of over 100 µM, a TGI (ACHN renal) of over 100 µM and a TGI (DU-145 prostate) of over 100 µM. The TGI (SN12C renal) was over 100 µM, the TGI (U251 CNS) was over 100 µM and the TGI (M14 melanoma) was over 100 µM. It also gave a TGI (NCI-H522 lung) of over 100 µM, a TGI (SF-539 CNS) of over 100 µM and a TGI (SK-MEL-28 melanoma) of over 100 µM. It also gave a TGI (SK-MEL-5 melanoma) of over 100 µM, a TGI (A549 NSCLC) of over 100 µM and a TGI (RPMI-8226 leukemia) of over 100 µM. The TGI (HCT-15 colon) was over 100 µM, the TGI (SNB-19 CNS) was over 100 µM and the TGI (NCI-H460 lung) was over 100 µM. The TGI (EKVX NSCLC) was over 100 µM, the TGI (OVCAR-8 ovarian) was over 100 µM and the TGI (UACC-62 melanoma) was over 100 µM. The TGI (SR leukemia) was over 100 µM, the TGI (COLO 205 colon) was over 100 µM and the TGI (OVCAR-5 ovarian) was over 100 µM.
